In experiment [1] the test system is A2780. The experiment is described as follows: Antiproliferative activity against human A2780 cells after 48 hrs by MTT assay. The settings on record: A2780, 48 h.
Experiment [2] is described as follows: Antiproliferative activity against human A2780/CDDP cells after 48 hrs by MTT assay.
For a further experiment, the system named is A549. The experiment is described as follows: cells. The settings on record: Homo sapiens, A549, 48 h.
The next experiment has as its system HeLa. The experiment is described as follows: cells. The settings on record: Homo sapiens, 48 h.
The next experiment deals with HUVEC. The experiment is described as follows: cells. The settings on record: Homo sapiens, 48 h.
Experiment [3] relates to A2780. As to the kind of experiment: Induction of nitric oxide generation in human A2780 cells at 100 uM after 150 mins by Griess assay. It counts as functional.
A short description of experiment [4]: Antiproliferative activity against human T29 cells after 48 hrs by MTT assay. The conditions noted are these: T29, 48 h.
In experiment [5] the test system is A2780. As to the kind of experiment: Induction of nitric oxide generation in human A2780 cells at 100 to 1000 nM after 1 hr by DAF-FM DA staining-based assay. It counts as functional, cell-based.
For experiment [6], the system named is MDA-MB-231. The experiment is described as follows: Antiproliferative activity against human MDA-MB-231 cells after 48 hrs by MTT assay. The conditions noted are these: MDA-MB-231, 48 h.
Experiment [7] relates to MDA-MB-231. As to the kind of experiment: Antiproliferative activity against gemcitabine-resistant human MDA-MB-231 cells after 48 hrs by MTT assay. The conditions noted are these: MDA-MB-231, 48 h.

Calls of active or inactive are those of the source. The rule behind the calls is not given here.

Description for HUVEC: Antiproliferative activity against HUVEC after 48 hrs by MTT assay

On to `CCc1cc(=O)c2ccc(OCCOc3no[n+]([O-])c3S(=O)(=O)c3ccccc3)cc2o1`, for which the IC50 in the experiment on A2780 [1] was 3330 nM; in experiment [2], 2880 nM; with A549, 5450 nM; with HeLa, 830 nM; in the experiment with HUVEC, 1030 nM.
Turning to `O=c1ccc2ccc(Oc3no[n+]([O-])c3S(=O)(=O)c3ccccc3)cc2o1`, the IC50 is 110 nM in the experiment with A2780 [1]; 3440 nM in [2]; 8860 nM in the experiment on A549; 4550 nM with HeLa; 6750 nM in the experiment with HUVEC.
The corresponding values for `Cc1cc(=O)oc2c(C)c(OCCOc3no[n+]([O-])c3S(=O)(=O)c3ccccc3)ccc12` are 46 nM, 330 nM, 1000 nM, 250 nM and 97 nM.
Consider `Cc1cc(=O)oc2cc(Sc3cccc(Cl)n3)ccc12`, for which the IC50 with A2780 [1] was found to be 1350 nM; in experiment [2], 1000 nM; with A549, 3250 nM; with HeLa it was 1480 nM; in the experiment on HUVEC, 5890 nM. Moreover, the outcome in the experiment on A2780 [3] was inactive.
Turning to `Cc1cc(=O)oc2cc(Oc3no[n+]([O-])c3S(=O)(=O)c3ccccc3)ccc12`, the IC50 is 2990 nM in the experiment on A2780 [1]; 3150 nM in experiment [2]; 5550 nM in the experiment on A549; > 20000 nM in the experiment on HeLa; 5430 nM with HUVEC.
On to `COCCOc1no[n+]([O-])c1S(=O)(=O)c1ccccc1`, for which the IC50 (with A2780 [1]; in [4]) was > 2000 nM in each case.
With `Cc1cc(=O)oc2cc(SCCOc3no[n+]([O-])c3S(=O)(=O)c3ccccc3)ccc12`, the IC50 in the experiment on A2780 [1] was 36 nM; in [2], 140 nM; in the experiment with A549, 120 nM; in the experiment on HeLa, 24 nM; with HUVEC it was 220 nM.
Taken in the same sequence, the figures for `CCc1cc(=O)c2ccc(Oc3no[n+]([O-])c3S(=O)(=O)c3ccccc3)cc2o1` were 130 nM, 2990 nM, 3290 nM, > 20000 nM and 3350 nM.
As to `CCOC(=O)N1CCN(/[N+]([O-])=N/Oc2ccc([N+](=O)[O-])cc2[N+](=O)[O-])CC1`, the result in the experiment on A2780 [5] was Active. Besides, the IC50 with A2780 [1] came out at 630 nM; in experiment [2], 1050 nM; with A549 it was 1260 nM; in the experiment on HeLa, 3560 nM; in the experiment with HUVEC, 5390 nM. In the experiment with A2780 [3], this molecule came in with an Activity of 48 µM.
With `Cc1cc(=O)oc2cc(OCC(=O)OCCOc3no[n+]([O-])c3S(=O)(=O)c3ccccc3)ccc12`, the IC50 was 3650 nM in the experiment with A2780 [1]; 7360 nM in experiment [2]; 6920 nM with A549; 4310 nM with HeLa; > 20000 nM with HUVEC.
The corresponding values for `O=C(COc1ccc2ccc(=O)oc2c1)OCCOc1no[n+]([O-])c1S(=O)(=O)c1ccccc1` are > 20000 nM, > 20000 nM, > 20000 nM, > 20000 nM and > 20000 nM.
Take `CCc1cc(=O)c2ccc(OCCCOc3no[n+]([O-])c3S(=O)(=O)c3ccccc3)cc2o1`: the half-maximal inhibitory concentration (IC50) was found to be 290 nM in the experiment with A2780 [1]; 890 nM in experiment [2]; 400 nM with A549; 190 nM in the experiment with HeLa; 350 nM in the experiment with HUVEC.
With `Cc1cc(=O)oc2cc(O)ccc12` [HYMECROMONE], the IC50 (in the experiment with A2780 [1]; in experiment [4]) was > 2000 nM throughout.
For the molecule `Cc1cc(=O)oc2cc(OCCCCOc3no[n+]([O-])c3S(=O)(=O)c3ccccc3)ccc12`, the IC50 in the experiment on A2780 [1] amounted to 660 nM; in [2], 990 nM; in the experiment on A549 it was 650 nM; in the experiment on HeLa, 320 nM; with HUVEC, 250 nM.
`Nc1ccn([C@@H]2O[C@H](CO)[C@@H](O)C2(F)F)c(=O)n1` [GEMCITABINE]: the IC50 in the experiment on MDA-MB-231 [6] was 25 nM; with MDA-MB-231 [7], > 10000 nM.
As to `Cc1cc(=O)oc2cc(OCCCOc3no[n+]([O-])c3S(=O)(=O)c3ccccc3)ccc12`, the IC50 with A2780 [1] stood at 350 nM; in experiment [2] it was 360 nM; in the experiment on A549, 280 nM; with HeLa it was 260 nM; in the experiment on HUVEC, 680 nM.
Regarding `Cc1cc(=O)oc2cc(NCCOc3no[n+]([O-])c3S(=O)(=O)c3ccccc3)ccc12`, the IC50 in the experiment on A2780 [1] was 2450 nM; in [2] it was 5450 nM; in the experiment on A549, 1440 nM; in the experiment on HeLa, 1990 nM; in the experiment on HUVEC, 3040 nM.
Taken in the same sequence, the figures for `Cc1cc(=O)oc2c(C)c(Oc3no[n+]([O-])c3S(=O)(=O)c3ccccc3)ccc12` were 9350 nM, > 20000 nM, 11700 nM, > 20000 nM and > 20000 nM.
The corresponding values for `O=S(=O)(c1ccccc1)c1no[n+]([O-])c1S(=O)(=O)c1ccccc1` are 880 nM, 890 nM, 2350 nM, 1450 nM and 4330 nM.
With `Cc1cc(=O)oc2cc(N(C)CCOc3no[n+]([O-])c3S(=O)(=O)c3ccccc3)ccc12`, the IC50 came to 950 nM in the experiment with A2780 [1]; 2380 nM in [2]; 1020 nM with A549; 510 nM in the experiment with HeLa; 890 nM with HUVEC.
`O=c1ccc2ccc(OCCOc3no[n+]([O-])c3S(=O)(=O)c3ccccc3)cc2o1`: the IC50 with A2780 [1] came out at 170 nM; in experiment [2], 200 nM; with A549, 260 nM; in the experiment on HeLa, 110 nM; in the experiment with HUVEC, 370 nM.

Values taken from ChEMBL document CHEMBL3352047, “Hybrids of phenylsulfonylfuroxan and coumarin as potent antitumor agents” (J Med Chem, 2014).
